Experiments:
[1] = test system: hypoxia-inducible factor-1; conditions: hypoxically cultured Hep3B cells; read-out: IC50 for suppression of the adaptive cellular response controlled by hypoxia-inducible factor-1; cited from earlier work
uPAR mRNA = experiment: Northern blot analysis of uPAR mRNA in MDA-MB-231 breast carcinoma cells; format: cell-based, human
uPAR protein = experiment: Western blot analysis of uPAR protein in MDA-MB-231 breast carcinoma cells; format: cell-based, human
Description: Following incubations, the cells were lysed using a buffer containing 40 mM HEPES pH 7.2, 100 mM NaCl, 20% glycerol, 0.1 mM EDTA pH 8.0, 0.2% Triton X-100, 1 mM DTT, and 2 mM PMSF. The lysates were then subjected to homogenization, DNA shearing (10 times with a 25⅝-gauge needle), boiling (5 minutes) and centrifugation (15 minutes, 14000 g). The supernatant was collected and stored at −80° C. until use. The samples were subjected to SDS-polyacrylamide gel electrophoresis (PAGE) and the resolved proteins were transferred to an Immobilon-P membrane using a wet transfer apparatus (Bio-Rad Laboratories, Mississauga, ON). The membranes were blocked overnight at 4° C. in a solution containing 1% PBS, and 0.01% Tween20 (PBS-T) as well as 5% casein. The blots were subsequently incubated for 1.5 hours with the monoclonal anti-uPAR antibody [MoAb 3937], followed by six 5 minute washes with PBS-T. The membranes were then incubated with a horseradish peroxidase labeled goat anti-mouse IgG secondary antibody for 1.5 hours. Following six additional 5 minute washes with PBS-T, the antigen was detected by enhanced chemiluminescence and the blots were exposed onto Dupont Reflection NEF film.
Following incubation, the cells were lysed using a buffer containing 40 mM HEPES pH 7.2, 100 mM NaCl, 20% glycerol, 0.1 mM EDTA pH 8.0, 0.2% Triton X-100, 1 mM dithiothreitol (DTT), and 2 mM phenylmethyl sulfonyl fluoride (PMSF). The lysates were then subjected to homogenization, DNA shearing (10 times with a 25⅝-gauge needle), boiling (5 minutes) and centrifugation (15 minutes at 14,000×g). The supernatant was collected and stored at −80° C. until use. The samples were subjected to SDS-polyacrylamide gel electrophoresis (PAGE) and the resolved proteins were transferred to an Immobilon-P membrane (Millipore Corp., Bedford, Mass.) using a wet transfer apparatus (BioRad Laboratories, Mississauga, ON). The membranes were blocked overnight at 4° C. in a solution containing 1% PBS, and 0.01% Tween 20 (PBS-T) as well as 5% dry milk powder. The blots were subsequently incubated for 1.5 hours with the monoclonal anti-uPAR (MoAb 3937; American Diagnostica Inc., Greenwich, Conn.), or a polyclonal soluble guanylate cyclase (sGC) antiserum (Cayman Chemical, Ann Arbor, Mich.) followed by six 5-minute washes with PBS-T. Subsequently, the uPAR membranes were incubated for 1 hour with a horseradish peroxidase labelled goat anti-mouse IgG secondary antibody (Bio-Rad, Hercules, Calif.) and the sGC membranes were incubated for 1 hour with a goat anti-rabbit IgG horseradish peroxidase conjugate (VECTOR Laboratories Inc., Burlingame, Calif.). Following six additional 5-minute washes with PBS-T, the antigen was detected by enhanced chemiluminescence (Amersham Canada Inc., Mississauga, ON) and the blots were exposed onto Dupont Reflection NEF film.

[2] = test system: MDA-MB-231 breast carcinoma cells; experiment: In vitro Matrigel invasion assay, MDA-MB-231; format: cell-based, human
Description: The chambers consist of cell culture inserts, 6.5 mm in diameter and with a 8 μm pore size membrane. Each membrane was coated with 100 μL of a 1 mg/mL solution of Matrigel diluted in cold serum-free culture medium (EX-CELL 300), and allowed to dry in a laminar flow cabinet for approximately 12 hours. The Matrigel was then rehydrated by incubating it with 100 μL of serum-free medium for approximately 1 hour. After rehydration, cell suspensions containing 5.0×10^4 or 1.0×10^5 cells in 100 μL of medium, containing both serum and the nitric oxide treatments, were added to each well. Culture medium containing serum and the respective nitric oxide treatment were then added to each insert. The cells were incubated for 24 hours under either hypoxic (1% O2) or control (20% O2) conditions. Following incubation, the non-invading cells were removed from the upper surface of the membrane by wiping with a cotton swab. The cells on the lower surface of the membrane were fixed for 10 minutes with Carnoy's fixative (25% acetic acid, 75% methanol), and then stained for approximately 3 hours with a 1% toluidine blue, 1% sodium borate solution. Following a rinse in phosphate-buffered saline (PBS), the membrane was removed from the insert housing with a small scalpel blade, mounted onto a microscope slide and coverslipped. Invading cells were then viewed under the microscope at 40× magnification and counted. The invasion index for each treatment was calculated by dividing the number of invading cells by the number of cells which invaded under standard conditions. This value was then multiplied by 100 to obtain a percentage. The standard was given a value of 100% and the treatment values were converted to a percentage of the standard. The results were tested for statistical significance using either the Tukey test for pair-wise multiple comparison procedures or the Student-Newman-Keuls method for pair-wise multiple comparison procedures.
The chambers consisted of 6.5-mm inserts with 8-μm pore membranes (Corning Costar Corp., Cambridge, Mass.). Each membrane was coated with 100 μL of a 2.6 mg/mL solution of Matrigel (Collaborative Biochemical Products, Bedford, Mass.) diluted in cold serum-free medium (EX-CELL 300; JRH Biosciences, Lenexa, Kans.), and allowed to dry in a laminar flow cabinet for approximately 12 hours. The Matrigel was then rehydrated with 100 μL of serum-free medium for approximately 1 hour. […] Invading cells were then viewed under the microscope at 40× magnification and counted. The invasion index for each treatment was calculated by dividing the number of invading cells by the number of cells that invaded under standard (20% oxygen) conditions. Invasion indices were expressed as percentages of control (20% oxygen) values. […]

[3] = test system: Bl6F10 metastatic melanoma cells; experiment: In vivo experimental metastasis (lung colonization) model; parameters: species or system C57BL6 mice; conditions: cells cultured in 1% O2 with 8-Br-cGMP (1 μM)
Description: C57BL6 mice were injected i.v. (tail vein) with a bolus of 5×10^4-10^5 Bl6F10 metastatic melanoma cells. Immediately after the tail vein injection, mice were randomly divided into groups of 15 and mice in each group were placed in plexiglass chambers (approximately 3 L) which were continuously flushed with gas mixtures of 20% O2:balance N2 and 10% O2:balance N2, respectively. […] After a 24 hour exposure to an atmosphere of either 20% O2 or 10% O2, mice were removed from the chambers and placed in regular cages kept at room air. Thirteen days later, mice were sacrificed by cervical dislocation, and lungs were removed and fixed in Bouin's fixative (Sigma). Metastatic nodules (many of which appeared black due to the presence of melanin) on the surface of the lungs were counted visually under a dissecting microscope. Data were expressed as the number of lung nodules per 10^4 cells injected and were analyzed using statistical tests for non-parametric values.
(§1) Cells were then removed from plates with trypsin and 5×10^4 cells were injected i.v. (tail vein) into C57BL6 female mice. Some of the cells treated in vitro were plated onto tissue culture dishes to determine colony-forming ability using the protocol described below in the Section I.J.
(§2) Following harvesting from culture plates, 5×10^4 cells were injected intravenously (tail vein injections) into 5-7 week old C57Bl/6 female mice. Cells were also plated in tissue culture plates to determine the effect of culture conditions on in vitro colony forming ability. Fourteen days after intravenous inoculation, mice were sacrificed and their lungs were removed and fixed in Bouin's fixative. Both melanotic and amelanotic metastatic colonies were counted under a dissecting microscope. Data were expressed as the number of lung nodules per 5×10^4 viable cells injected (as determined by in vitro colony-forming ability) and were analyzed using statistical tests for non-parametric values.

[4] = test system: Bl6F10 mouse melanoma cells; experiment: In vitro colony-forming ability of treated Bl6F10 melanoma cells; format: cell-based; conditions: 8-Br-cGMP treatment
Description: as §1, §2

[5] = test system: MDA-MB-231 breast cancer cells; experiment: Colony formation assay for doxorubicin resistance, MDA-MB-231 monolayer; format: cell-based, human; conditions: 200 μM doxorubicin
Description: The resistance of MDA-MB-231 breast cancer cells to doxorubicin was determined following culture in 20% or 1% oxygen by counting the number of colonies formed. MDA-MB-231 cells were incubated in 1% O2 or 20% O2 for 24 hours. […] The cells were washed and then plated onto 35 mm plates at different dilutions. The cells were incubated for an additional 1-2 weeks in order to allow cell colonies to grow. At the end of the incubation period, the cells were fixed with Carnoy's fixative, stained with Crystal violet, rinsed and allowed to air dry. Colonies were counted visually. The surviving cells under each condition was determined by counting the number of colonies and was expressed as a fraction of the number of colonies that survived without doxorubicin exposure.
Using human MDA-MB-231 breast carcinoma cells in clonogenic assays, survival was determined following doxorubicin exposure and NO mimetic administration to both monolayer and spheroid cultures. […] However, these NO mimetics effectively attenuated the resistance to 200 μM doxorubicin associated with 3D culture by 90% and 30% respectively.

[6] = test system: human PC-3 prostatic adenocarcinoma cells; conditions: 0.5% vs 20% O2; one-hour doxorubicin
Description: (§3) Low tumor oxygenation (hypoxia) correlates with increased metastasis and resistance to radiotherapy and chemotherapy. […] This was followed by a one-hour incubation with doxorubicin and survival was assessed by colony formation assays. Western blot analysis was used to measure NO synthase (NOS) protein levels in cells cultured in 20% and 0.5% O2.

[7] = test system: mouse TRAMP-C2 prostatic adenocarcinoma cells; conditions: 0.5% vs 20% O2; one-hour doxorubicin
Description: as §3

[8] = test system: MDA-MB-231 breast carcinoma spheroids; experiment: Clonogenic survival of MDA-MB-231 spheroids after doxorubicin; format: cell-based, human; conditions: 200 μM doxorubicin
Description: Following initial cell plating, spheroids formed for 24, 48, 72, 96 or 120 h. At each time point, spheroids were exposed to 200 μM of doxorubicin, then disaggregated and plated for assessment of colony formation (survival).
Spheroids were allowed to form for 72 h. DETA/NO was applied for the final 24 h of spheroid formation. Spheroids were then exposed to doxorubicin for 1 h, prior to disaggregation and plating for assessment of survival by clonogenic assay.
Using human MDA-MB-231 breast carcinoma cells in clonogenic assays, survival was determined following doxorubicin exposure and NO mimetic administration to both monolayer and spheroid cultures.

[9] = 8-Br-cGMP 0.1 μM-10 μM, 24 hours, dose-dependent
[10] = 8-Br-cGMP 10^−3-10^−7 M, 0.5% O2 or DFO 100 μM

N=c1c[n+](N2CCOCC2)[n-]o1 [3-morpholinosydnonimine]
IC50 [1]: 490 µM

N[C@@H](CCC(=O)N[C@@H](CSN=O)C(=O)NCC(=O)O)C(=O)O [S-nitroso-L-glutathione]
IC50 [1]: 211 µM

Nc1nc2c(nc(Br)n2[C@@H]2O[C@@H]3COP(=O)(O)O[C@H]3[C@H]2O)c(=O)[nH]1 [8-Br-cGMP, 8-bromoguanosine 3′:5′-cyclic monophosphate]
reduction of hypoxic upregulation of uPAR mRNA expression (uPAR mRNA; [9]): up to 100%
effect on hypoxia- and DFO-induced uPAR expression, mRNA level (uPAR mRNA; [10]): significantly abrogated
DFO-induced upregulation of uPAR mRNA expression (uPAR mRNA; 8-Br-cGMP (1 mM) as printed): complete inhibition
reduction of hypoxic upregulation of uPAR protein expression (uPAR protein; [9]): up to 100%
effect on hypoxia- and DFO-induced uPAR expression, protein level (uPAR protein; [10]): significantly abrogated
effect of hypoxia on invasiveness ([2]; 0.1 μM-1 mM, 24-h, 0.5% O2): completely inhibited
hypoxia-associated invasion ([2]; 8-Br-cGMP): significantly inhibit
hypoxic induction of metastatic lung nodules [3]: completely abrogated
viability of the cells (colony formation assay) [4]: did not affect the viability

COc1cccc2c1C(=O)c1c(O)c3c(c(O)c1C2=O)C[C@@](O)(C(=O)CO)C[C@@H]3O[C@H]1C[C@H](N)[C@H](O)[C@H](C)O1 [doxorubicin]
survival in monolayer culture [5]: zero
increased survival following doxorubicin after pre-incubation under hypoxia [6]: up to 8 fold
increased survival following doxorubicin after pre-incubation under hypoxia [7]: up to 12 fold
decrease in survival of tumor cells cultured as spheroids [8]: 90%

O=S(=O)(NCCNC/C=C/c1ccc(Br)cc1)c1cccc2cnccc12 [H-89]
effect of forskolin on uPAR expression (uPAR mRNA; H-89 1 μM with forskolin 10 μM): prevented
uPAR expression (uPAR mRNA; H-89 1 μM, independent of oxygenation): up-regulation
invasiveness ([2]; H-89 1 μM alone): independently enhanced invasiveness
effect of forskolin on invasion ([2]; H-89 1 μM with forskolin 10 μM): prevented

From patent US8168232B2, “Formulations and methods of using nitric oxide mimetics in cancer treatment” (priority 2000, dated 2012)
